Measured values reported in PMC10931479, “Exploration of hypoglycemic peptides from porcine collagen based on network pharmacology and molecular docking” (PLOS ONE, 2024).
“Also recorded” adds a separate entry of the source.

Test system: α-glucosidase
Test: α-Glucosidase activity inhibition test (pNPG)
Format: biochemical
Details: 0.1 to 0.7 mg/mL; in vitro; comparison with acarbose where stated
Procedure: The samples were prepared at different concentrations (1-7 mg/mL), and the following compounds were prepared: α-glucosidase (0.1 Ua), PBS (pH 6.8, 0.05 mol/L), PNPG (2.5 mmol/L), and Na2CO3 (1 mol/L). The control, sample blank, and sample groups were incubated at their appropriate temperature and time, and the absorbance at 405 nm was measured using a microplate reader. The inhibitory activity was calculated using Eq (2). The inhibition rate of α-glucosidase was solved according to the concentration of different mass samples. The IC50 values were calculated based on the fitting curves. […] All experiments were conducted in triplicate and the data are expressed as the mean ± standard deviation (SD). Statistical analysis was performed using SPSS 27.0 software with Duncan's multiple and one-way ANOVA tests to determine the differences among the mean values. The mapping was done using prism and bioinformatics tools (http://www.bioinformatics.com.cn/).

For “NWYR [tetrapeptide from in silico trypsin hydrolysis of porcine collagen BAX02569.1, synthesized by solid-phase synthesis]”, which “Inhibition of α-glucosidase in words” value is on record?
The value was “significantly inhibited α-glucosidase activity in a concentration-dependent manner; also recorded: no significant difference between them and acarbose; also recorded: the inhibitory effect of NWYR was stronger”.

Test system: not given
Test: not given
Details: peptides from bovine skin collagen; cited from earlier work
Excerpt: (§1) At present, dietary proteins isolated from black beans, fermented soybean, balsam pear, and other sources have been identified as having anti-diabetic peptide properties. In vitro experiments have confirmed the hypoglycemic effects of many of these peptides, with some outperforming clinical drugs. […] He L, et al. isolated five peptides (GPVGPPG, GPPGPT, APGGAP, FGPGP, and GPVG) from bovine skin colla ...

For “APGGAP [peptide from bovine skin collagen]”, which Anti-diabetic properties is on record?
Its Anti-diabetic properties is “exhibited anti-diabetic properties”.

For “FGPGP [peptide from bovine skin collagen]”, which Anti-diabetic properties is on record?
The Anti-diabetic properties was “exhibited anti-diabetic properties”.

With “GPPGPT [peptide from bovine skin collagen]” as the substance, how does the Anti-diabetic properties read?
The Anti-diabetic properties was “exhibited anti-diabetic properties”.

With “GPVG [peptide from bovine skin collagen]” as the substance, how does the Anti-diabetic properties read?
Its Anti-diabetic properties is “exhibited anti-diabetic properties”.

Which Anti-diabetic properties does the source give for “GPVGPPG [peptide from bovine skin collagen]” here?
The Anti-diabetic properties was “exhibited anti-diabetic properties”.

Test system: α-glucosidase
Test: not given
Details: peptides from silkworm pupae; cited from earlier work
Excerpt: as §1

For NSPR [peptide from silkworm pupae], which “Suppression of α-glucosidase activity” value is on record?
The value was “can suppress α-glucosidase activity”.

Which “Suppression of α-glucosidase activity” value does the source give for QPGR [peptide from silkworm pupae] here?
The value was “can suppress α-glucosidase activity”.

Which “Suppression of α-glucosidase activity” value does the source give for SQSPA [peptide from silkworm pupae] here?
The value was “can suppress α-glucosidase activity”.

Which “Suppression of α-glucosidase activity” value does the source give for QPPT [peptide from silkworm pupae] here?
Its value is “can suppress α-glucosidase activity”.
